Source: PMC8815882, “Screening the pandemic response box identified benzimidazole carbamates, Olorofim and ravuconazole as promising drug candidates for the treatment of eumycetoma” (PLoS Neglected Tropical Diseases, 2022)
Where two headings read alike, the source gives them in different places. Peptide text beside a SMILES is read from it.

Test system: M. mycetomatis genome strain MM55
Test: CLSI M38-A2 based in vitro susceptibility screening (XTT or resazurin), growth at fixed concentration
Format: cell-based, Madurella mycetomatis
Conditions: for activity at 25 µM / activity at 100 µM / Percent fungal survival at 100 µM: Madurella mycetomatis; for Percent fungal survival at 100 µM: read-out: Percentage survival at 100um, 100 uM A (second replicate column)
[1] = 25 uM, mean of three replicates, read-out: Percentage survival at 25um, 25 uM mean
[2] = 25 uM, replicate A, read-out: Percentage survival at 25um, 25 um A
[3] = 25 uM, replicate B, read-out: Percentage survival at 25um, 25 uM B
[4] = 25 uM, replicate C, read-out: Percentage survival at 25um, 25 uM C
[5] = 100 uM, first replicate column, read-out: Percentage survival at 100um, 100 uM A
[6] = 100 uM, mean of three replicates, read-out: Percentage survival at 100um, 100 uM mean
[7] = 100 uM, second replicate column, read-out: Percentage survival at 100um, 100 uM A
[8] = 100 uM, third replicate column, read-out: Percentage survival at 100um, 100 uM A
[9] = 25 uM, mean of three, M. mycetomatis MM55, read-out: Percentage survival at 25um, 25 uM mean
[10] = 25 uM, replicate A, M. mycetomatis MM55, read-out: Percentage survival at 25um, 25 um A
[11] = 25 uM, replicate B, M. mycetomatis MM55, read-out: Percentage survival at 25um, 25 uM B
[12] = 25 uM, replicate C, M. mycetomatis MM55, read-out: Percentage survival at 25um, 25 uM C
[13] = 100 uM, mean of three, M. mycetomatis MM55, read-out: Percentage survival at 100um, 100 uM mean
[14] = 100 uM, replicate 1, M. mycetomatis MM55, read-out: Percentage survival at 100um, 100 uM A (first replicate column)
[15] = 100 uM, replicate 2, M. mycetomatis MM55
[16] = 100 uM, replicate 3, M. mycetomatis MM55, read-out: Percentage survival at 100um, 100 uM A (third replicate column)
[17] = 100 uM, replicate 1, read-out: Percentage survival at 100um, 100 uM A (first replicate column)
[18] = 100 uM, replicate 3, read-out: Percentage survival at 100um, 100 uM A (third replicate column)
[19] = 25 uM, mean, read-out: Percentage survival at 25um, 25 uM mean
[20] = 100 uM, mean, read-out: Percentage survival at 100um, 100 uM mean
[21] = 100 uM, replicate (first column), read-out: Percentage survival at 100um, 100 uM A
[22] = 100 uM, replicate (second column), read-out: Percentage survival at 100um, 100 uM A
[23] = 100 uM, replicate (third column), read-out: Percentage survival at 100um, 100 uM A
[24] = 25 uM, mean of replicates, read-out: Percentage survival at 25um, 25 uM mean
[25] = 100 uM, mean of replicates, read-out: Percentage survival at 100um, 100 uM mean
[26] = 100 uM, replicate 1, read-out: Percentage survival at 100um, 100 uM A
[27] = 100 uM, replicate 2, read-out: Percentage survival at 100um, 100 uM A
[28] = 100 uM, replicate 3, read-out: Percentage survival at 100um, 100 uM A

| SMILES | activity at 25 µM [2] [%] | activity at 25 µM [3] [%] | activity at 25 µM [4] [%] | activity at 25 µM [19] [%] | activity at 100 µM [20] [%] | activity at 100 µM [21] [%] | activity at 100 µM [22] [%] | activity at 100 µM [23] [%] | other results |
| --- | --- | --- | --- | --- | --- | --- | --- | --- | --- |
| O=C(O)c1cc(-c2ccccc2)nc2ccccc12 [MMV018362] | 97.4 | 94.7 | 83 | – | – | – | – | – | activity at 25 µM [1]: 91.7%; activity at 100 µM [5]: 91%; activity at 100 µM [6]: 87.9%; activity at 100 µM [7]: 79.7%; activity at 100 µM [8]: 93.1% |
| CN1CCN(c2ccc3[nH]c(-c4ccc5[nH]c(-c6ccc(O)cc6)nc5c4)nc3c2)CC1 [MMV020752] | – | – | – | – | – | – | – | – | activity at 25 µM [9]: 67.2%; activity at 25 µM [10]: 67.7%; activity at 25 µM [11]: 71.6%; activity at 25 µM [12]: 62.2%; activity at 100 µM [13]: 24.3%; activity at 100 µM [14]: 53.4%; Percent fungal survival at 100 µM [15]: 14.6%; activity at 100 µM [16]: 4.7% |
| NC(=O)c1cnccn1 [MMV003249] | 89.2 | 75.7 | 84.4 | – | – | – | – | – | activity at 25 µM [1]: 83.1%; activity at 100 µM [6]: 60%; activity at 100 µM [17]: 53.7%; Percent fungal survival at 100 µM (100 uM, replicate 2): 70%; activity at 100 µM [18]: 56.3% |
| CC(Oc1ccc(Cl)cc1Cl)C(=O)NCc1ccc2c(c1)OCO2 (centres unmarked) [MMV1578925] | 53.9 | 36.1 | 54.9 | 48.3 | 70.2 | 65.3 | 69 | 76.3 | – |
| O=C(Nc1cccc(C2=NCCN2)c1)c1ccc(-c2ccc(C(=O)Nc3cccc(C4=NCCN4)c3)cc2)cc1 [MMV1580853] | 92.1 | 94.2 | 67.1 | 84.5 | 55.8 | 6.17 | 92 | 69.2 | – |
| O=C(CCCC(F)(F)F)N1CCC(c2nc(-c3nccs3)no2)CC1 [MMV1582491] | – | – | – | – | – | – | – | – | activity at 25 µM [9]: 73.3%; activity at 25 µM [10]: 68.8%; activity at 25 µM [11]: 80.7%; activity at 25 µM [12]: 70.4%; activity at 100 µM [13]: 72.9%; activity at 100 µM [14]: 57%; Percent fungal survival at 100 µM [15]: 67%; activity at 100 µM [16]: 94.8% |
| COc1cc(C2C3=C(CC(C)(C)CC3=O)Nc3ccccc3N2C(C)=O)ccc1OCc1ccccc1 (centres unmarked) [MMV1634557] | 90.5 | 79.1 | 76.6 | 82.1 | 85.5 | 92.5 | 79.5 | 84.5 | – |
| CCCCCCCCC(CP(=O)(O)C(C)N)C(=O)O (centres unmarked) [MMV1582487] | 90.3 | 86.2 | 76.2 | – | – | – | – | – | activity at 25 µM [24]: 84.2%; activity at 100 µM [25]: 95.3%; activity at 100 µM [26]: 85.8%; activity at 100 µM [27]: 103%; activity at 100 µM [28]: 97.5% |
| CC(N)C(=O)NC(CCCCN)C(=O)NC(CCCNC(=N)N)C(=O)NC(Cc1c[nH]cn1)C(=O)NC(Cc1c[nH]cn1)C(=O)NCC(=O)NC(Cc1ccc(O)cc1)C(=O)NC(CCCCN)C(=O)NC(CCCNC(=N)N)C(=O)NC(CCCCN)C(=O)NC(Cc1ccccc1)C(=O)NC(Cc1c[nH]cn1)C(N)=O (centres unmarked) [MMV1579849] (H-AKRHHGYKRKFH-NH2; configuration not given here) | – | – | – | – | – | – | – | – | Percentage survival at 25um, 25 uM mean (25 uM, mean of three, M. mycetomatis MM55): 88.4824%; Percentage survival at 25um, 25 um A (25 uM, replicate A, M. mycetomatis MM55): 86.8656%; Percentage survival at 25um, 25 uM B (25 uM, replicate B, M. mycetomatis MM55): 93.5744%; Percentage survival at 25um, 25 uM C (25 uM, replicate C, M. mycetomatis MM55): 85.0073%; Percentage survival at 100um, 100 uM mean (100 uM, mean of three, M. mycetomatis MM55): 95.7644%; Percentage survival at 100um, 100 uM A (first replicate column) (100 uM, replicate 1, M. mycetomatis MM55): 92.1348%; Percentage survival at 100um, 100 uM A (second replicate column) [15]: 102.447%; Percentage survival at 100um, 100 uM A (third replicate column) (100 uM, replicate 3, M. mycetomatis MM55): 92.7112% |
| Cc1cccc(CC(=O)N[C@H]2CCOC2=O)c1 [MMV1579782] | 95.3 | 93.9 | 92.9 | – | – | – | – | – | activity at 25 µM [24]: 94%; activity at 100 µM [25]: 90.9%; activity at 100 µM [26]: 95.1%; activity at 100 µM [27]: 88.4%; activity at 100 µM [28]: 89.2% |
| O=C(Nc1[nH]c(=O)ncc1F)c1ccccc1 [MMV1782225] | 82.4 | 77.6 | 77.1 | 79 | 83.6 | 74.1 | 79.1 | 97.6 | – |
| COc1ccc(NC(=O)c2cc3ccccn3n2)cc1 [MMV374187] | 94.6 | 115 | 90.7 | – | – | – | – | – | activity at 25 µM [1]: 100%; activity at 100 µM [6]: 65.8%; activity at 100 µM [17]: 52%; Percent fungal survival at 100 µM (100 uM, replicate 2): 60.6%; activity at 100 µM [18]: 84.9% |
| CN(C)CCCNC(=O)c1ccc(-c2cc(O)c3ncccc3c2)cc1 [MMV1580488] | – | – | – | – | – | – | – | – | activity at 25 µM (25 uM, mean of replicates, MM55, read-out: Percentage survival at 25um, 25 uM mean): 54.3%; activity at 25 µM (25 uM, replicate A, MM55, read-out: Percentage survival at 25um, 25 um A): 72%; activity at 25 µM (25 uM, replicate B, MM55, read-out: Percentage survival at 25um, 25 uM B): 76.2%; activity at 25 µM (25 uM, replicate C, MM55, read-out: Percentage survival at 25um, 25 uM C): 14.8%; activity at 100 µM (100 uM, mean of replicates, MM55, read-out: Percentage survival at 100um, 100 uM mean): 9.5%; activity at 100 µM (100 uM, replicate 1, MM55, read-out: Percentage survival at 100um, 100 uM A): 10.5%; activity at 100 µM (100 uM, replicate 2, MM55, read-out: Percentage survival at 100um, 100 uM A): 5.72%; activity at 100 µM (100 uM, replicate 3, MM55, read-out: Percentage survival at 100um, 100 uM A): 12.3% |
| COC(=O)Nc1nc2ccc([S+]([O-])c3ccccc3)cc2[nH]1 (centres unmarked) [MMV002565, Oxfendazole, reference compound] | 91.3 | 87.4 | 83.6 | 87.4 | 76.1 | 83.9 | 71.1 | 73.2 | – |
| CC(C)N(c1cc(-c2ccccc2)sc1C(=O)O)C(=O)[C@H]1CC[C@H](C)CC1 [MMV1634388] | 89.7 | 99.2 | 81.2 | – | – | – | – | – | activity at 25 µM [1]: 90%; activity at 100 µM [5]: 83.3%; activity at 100 µM [6]: 76.1%; activity at 100 µM [7]: 68.1%; activity at 100 µM [8]: 77% |
| COc1cc2c(O)c3c(c(-c4ccc5c(c4)OCO5)c2cc1OC)C(=O)OC3 [MMV102270] | 79.5 | 84.8 | 77.5 | – | – | – | – | – | activity at 25 µM [1]: 80.6%; activity at 100 µM [6]: 107%; activity at 100 µM [17]: 93.7%; Percent fungal survival at 100 µM (100 uM, replicate 2): 74.4%; activity at 100 µM [18]: 153% |
| O=C1c2cccc3cccc(c23)C(=O)N1CC1CO1 (centres unmarked) [MMV1634360] | 65.4 | 62.1 | 55.4 | 61 | 2.87 | -2.26 | 3.27 | 7.61 | – |
| COc1ccc(SCC(=O)N2c3ccccc3Sc3ccccc32)cc1 [MMV1578573] | 59.3 | 58.5 | 48.8 | – | – | – | – | – | activity at 25 µM [24]: 55.5%; activity at 100 µM [25]: 68.5%; activity at 100 µM [26]: 43.6%; activity at 100 µM [27]: 62.3%; activity at 100 µM [28]: 99.7% |
| Cc1cc(Nc2ccc(F)cc2)nc(SCc2nc3ccccc3[nH]2)n1 [MMV1582498] | 99.7 | 99 | 80.1 | 92.9 | 45 | 67.6 | 17.6 | 49.8 | – |
